Measurements: patent US9580411B2, “Substituted sulfonamide compounds” (Hoffmann-La Roche Inc., priority 2012, dated 2017)

The compounds below were run against hTRPA1 (Homo sapiens (Human), UniProt O75762) (assay: Dose response calcium flux assay (FLIPR), ChanTest hTRPA1-CHO stably transfected cell line). Details: CHO-K1 Tet-On human TRPA1 cells, cinnamaldehyde agonist (final 100 uM).
Assay type: cell-based
Experimental: IC50 Determinations of Exemplified Compounds Dose Response Assay: Chan Test hTRPA1-CHO Stably Transfected Cell Line
CHO-K1 Tet-On_HOMSA_TRPA1_Clone_20
Chinese Hamster Ovary cells, inducible expression
• Ham's F-12 with 10% tetracycline-free FBS • 1× penicillin-streptomycin • 1× glutamax • 0.01 mg/ml Blasticidin • 0.40 mg/ml Zeocin • The cell line doubling rate was ˜15 hours. […] Experiments were run at 24 hours post induction. Plating Conditions CHOK1/TRPA1 Cells: • Harvested cells with 0.025% trypsin/EDTA. • Resuspended cells in growth media without selection antibiotics. • Measured cell density and diluted to 2.4×10^5 cells/ml in media containing 1 ug/ml Doxycycline Plate 25 ul/well into 384 well black/clear tissue culture-treated plates. • Incubated overnight at 37° C. Calcium Flux Assay: Day of Assay: Reagents: • Replacement Buffer: Hank's Balanced Salt Solution, 20 mM HEPES along with 0.005% BSA and 2× Probenecid • Dye Loading Buffer: Cal-3 NW Calcium dye was prepared by dissolving the contents of one vial with […] Hank's Balanced Salt Solution containing 20 mM HEPES. • Control compounds for CHOK1/TRPA1 cells: AP-18, stock 10 mM, prepare 3.5× compound dilution in a Compound Buffer (HBSS/20 mM HEPES/0.005% BSA)—final concentration 10 uM. • Preparation of Cinnamaldehyde (agonist addition): FW=132.16 • Specific gravity=1.046 gm/cc • 1.32 gm/1.046 gm/cc=1.26 ml of stock • Add 1.74 ml DMSO=3.3 M stock • Working solution 4.5× (final 100 uM in Compound Buffer: HBSS/20 mM HEPES/0.005% BSA) • Compounds dilutions were prepared from 5 or 10 mM stock (100% DMSO): • Adjustments of volumes and concentrations were made at time of titration to reflect desired final assay concentrations. • Compounds were tested at either 20 μM three folds dilution 11 steps out or 30 μM two folds dilution 11 steps out. • 3 μl of diluted compound were transferred into Weidmann 384-well plate in duplicates side-by-side. • Compound plates were resuspended with 100 ul of HBSS/20 mM HEPES/0.005% BSA buffer (Compound Buffer): • column 1A-H: buffer/DMSO (bk) • column 2A-H: AP-18 (control antagonist for CHOK1 TRPA1 cells) • column 1I-P: ATP (control for CHOK1 teton cells) • column 2 I-P: 2APB (control antagonist for CHOK1/TRPM8 cells). Growth media was removed from the cell plates (20 ul) and 20 ul of the Replacement Buffer was added followed by addition of 25 ul of diluted dye. All three steps were performed using a Plate Washer BioTek 407. The plates were then incubated for 30′ at RT.
After incubation, both the cell and compound plates were brought to the FLIPR and 20 ul of the diluted compounds/antagonist/bk were transferred to the cell plates by the FLIPR. Plates were then incubated for 30′ at room temperature. After 30′ incubation, plates were returned to the FLIPR and 20 ul of 4.5× Cinnamaldehyde was added to the cell plates. During the compound addition as well as agonist addition, fluorescence readings were taken simultaneously from all 384 wells of the cell plate every 1.5 seconds. Five readings were taken to establish a stable baseline, then 20 ul of sample was rapidly (30 ul/sec) and simultaneously added to each well of the cell plate. The fluorescence was continuously monitored before, during and after sample/agonist addition for a total elapsed time of 100 seconds (compound addition) and 120 seconds (agonist addition). Responses (increase in peak fluorescence) in each well following agonist addition was determined. The initial fluorescence reading from each well, prior to ligand stimulation, was used a zero baseline value for the data from that well.

hTRPA1, sequence (O75762 whole entry): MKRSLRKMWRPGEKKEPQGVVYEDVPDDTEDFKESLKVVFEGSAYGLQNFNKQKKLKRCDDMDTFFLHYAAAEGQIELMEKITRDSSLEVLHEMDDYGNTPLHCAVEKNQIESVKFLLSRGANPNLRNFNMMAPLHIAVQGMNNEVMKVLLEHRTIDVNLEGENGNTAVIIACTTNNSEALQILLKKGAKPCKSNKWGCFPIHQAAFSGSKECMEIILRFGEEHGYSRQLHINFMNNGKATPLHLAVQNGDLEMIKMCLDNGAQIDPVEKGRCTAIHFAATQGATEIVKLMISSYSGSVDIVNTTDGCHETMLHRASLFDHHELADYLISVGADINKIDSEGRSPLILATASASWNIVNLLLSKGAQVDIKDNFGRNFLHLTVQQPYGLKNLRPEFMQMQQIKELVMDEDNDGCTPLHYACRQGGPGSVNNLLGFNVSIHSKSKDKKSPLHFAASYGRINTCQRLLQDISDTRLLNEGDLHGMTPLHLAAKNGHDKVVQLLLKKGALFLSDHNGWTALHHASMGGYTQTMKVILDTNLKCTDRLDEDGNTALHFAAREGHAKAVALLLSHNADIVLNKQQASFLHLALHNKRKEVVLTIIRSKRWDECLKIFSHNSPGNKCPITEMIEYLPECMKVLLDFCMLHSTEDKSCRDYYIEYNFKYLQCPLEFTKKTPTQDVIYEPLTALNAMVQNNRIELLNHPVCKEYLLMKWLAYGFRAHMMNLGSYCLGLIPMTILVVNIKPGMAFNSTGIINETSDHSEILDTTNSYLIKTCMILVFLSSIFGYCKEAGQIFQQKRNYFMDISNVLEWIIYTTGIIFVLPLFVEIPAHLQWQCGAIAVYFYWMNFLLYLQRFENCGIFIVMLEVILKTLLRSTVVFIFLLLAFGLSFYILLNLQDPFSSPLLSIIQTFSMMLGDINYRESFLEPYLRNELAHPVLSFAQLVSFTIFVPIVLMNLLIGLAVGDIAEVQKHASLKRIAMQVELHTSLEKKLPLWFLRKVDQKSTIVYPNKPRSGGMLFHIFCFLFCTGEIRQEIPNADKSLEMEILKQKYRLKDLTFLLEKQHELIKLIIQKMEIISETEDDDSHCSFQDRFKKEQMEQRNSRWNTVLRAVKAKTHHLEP

Structure (SMILES) | IC50 [nM]
CN(CC(=O)NCc1cc(-c2ccc(C(F)(F)F)cc2)ncn1)S(=O)(=O)c1cccs1 [Example 26, 2-[methyl-(thiophene-2-sulfonyl)-amino]-N-[6-(4-trifluoromethyl-phenyl)-pyrimidin-4-ylmethyl]-acetamide] | 340
CC(C)N(CC(=O)NCc1cc(-c2ccc(C(F)(F)F)cc2)ncn1)S(=O)(=O)c1ccc(F)cc1 [Example 27, 2-[(4-Fluoro-benzenesulfonyl)-isopropyl-amino]-N-[6-(4-trifluoromethyl-phenyl)-pyrimidin-4-ylmethyl]-acetamide] | 52
CCN(CC(=O)NCc1cc(-c2ccc(C(F)(F)F)cc2)ncn1)S(=O)(=O)c1ccc(F)cc1 [Example 28, 2-[Ethyl-(4-fluoro-benzenesulfonyl)-amino]-N-[6-(4-trifluoromethyl-phenyl)-pyrimidin-4-ylmethyl]-acetamide] | 33
COCCN(CC(=O)NCc1cc(-c2ccc(C(F)(F)F)cc2)ncn1)S(=O)(=O)c1ccc(F)cc1 [Example 29, 2-[(4-Fluoro-benzenesulfonyl)-(2-methoxy-ethyl)-amino]-N-[6-(4-trifluoromethyl-phenyl)-pyrimidin-4-ylmethyl]-acetamide] | 470
O=C(CN(CCO)S(=O)(=O)c1ccc(F)cc1)NCc1cc(-c2ccc(C(F)(F)F)cc2)ncn1 [Example 30, 2-[(4-fluoro-benzenesulfonyl)-(2-hydroxy-ethyl)-amino]-N-[6-(4-trifluoromethyl-phenyl)-pyrimidin-4-ylmethyl]acetamide] | 220
CC(C)(C)N(CC(=O)NCc1cc(-c2ccc(C(F)(F)F)cc2)ncn1)S(=O)(=O)c1ccc(F)cc1 [Example 31, 2-[tert-Butyl-(4-fluoro-benzenesulfonyl)-amino]-N-[6-(4-trifluoromethyl-phenyl)-pyrimidin-4-ylmethyl]-acetamide] | 380
CC(C)N([C@@H](C)C(=O)NCc1cc(-c2ccc(C(F)(F)F)cc2)ncn1)S(=O)(=O)c1ccc(F)cc1 [Example 32, (S)-2-[(4-Fluoro-benzenesulfonyl)-isopropyl-amino]-N-[6-(4-trifluoromethyl-phenyl)-pyrimidin-4-ylmethyl]-propionamide] | 190
CC(C)N(CC(=O)NCc1ccc(-c2ccc(C(F)(F)F)cc2)cc1)S(=O)(=O)c1ccc(F)cc1 [Example 33, 2-[(4-Fluoro-benzenesulfonyl)-isopropyl-amino]-N-(4′-trifluoromethyl-biphenyl-4-ylmethyl)-acetamide] | 2210
CC(C)N(CC(=O)NCc1ccc(-c2cccc(C(F)(F)F)c2)cc1)S(=O)(=O)c1ccc(F)cc1 [Example 34, 2-[(4-Fluoro-benzenesulfonyl)-isopropyl-amino]-N-(3′-trifluoromethyl-biphenyl-4-ylmethyl)-acetamide] | 3660
CC(C)N(CC(=O)NCc1ccc(F)c(-c2ccc(C(F)(F)F)cc2)c1)S(=O)(=O)c1ccc(F)cc1 [Example 35, 2-[(4-Fluoro-benzenesulfonyl)-isopropyl-amino]-N-(6-fluoro-4′-trifluoromethyl-biphenyl-3-ylmethyl)-acetamide] | 54
CC(C)N(CC(=O)NCc1cc(F)cc(-c2ccc(C(F)(F)F)cc2)c1)S(=O)(=O)c1ccc(F)cc1 [Example 36, 2-[(4-Fluoro-benzenesulfonyl)-isopropyl-amino]-N-(5-fluoro-4′-trifluoromethyl-biphenyl-3-ylmethyl)-acetamide] | 12
CC(C)N(CC(=O)NCc1cc(-c2ccc(C(F)(F)F)cc2)ccc1F)S(=O)(=O)c1ccc(F)cc1 [Example 37, 2-[(4-Fluoro-benzenesulfonyl)-isopropyl-amino]-N-(4-fluoro-4′-trifluoromethyl-biphenyl-3-ylmethyl)-acetamide] | 14
C[C@H](C(=O)NCc1cc(-c2ccc(C(F)(F)F)cc2)ncn1)N(C)S(=O)(=O)c1ccc(F)cc1 [Example 38, (R)-2-[(4-Fluoro-benzenesulfonyl)-methyl-amino]-N-[6-(4-trifluoromethyl-phenyl)-pyrimidin-4-ylmethyl]-propionamide] | 64
CC(C)N(CC(=O)NCc1cccc(-c2ccc(C(F)(F)F)cc2)c1)S(=O)(=O)c1ccc(F)cc1 [Example 39, 2-[(4-Fluoro-benzenesulfonyl)-isopropyl-amino]-N-(4′-trifluoromethyl-biphenyl-3-ylmethyl)-acetamide] | 51
CC(C)N(CC(=O)NCc1cccc(-c2ccc(C(F)(F)F)cn2)c1)S(=O)(=O)c1ccc(F)cc1 [Example 40, 2-[(4-Fluoro-benzenesulfonyl)-isopropyl-amino]-N-[3-(5-trifluoromethyl-pyridin-2-yl)-benzyl]-acetamide] | 67
CN(CC(=O)NCc1cccc(-c2ccc(C(F)(F)F)cn2)c1)S(=O)(=O)c1ccc(F)cc1 [Example 41, 2-[(4-Fluoro-benzenesulfonyl)-methyl-amino]-N-[3-(5-trifluoromethyl-pyridin-2-yl)-benzyl]-acetamide] | 290
CCN(CC(=O)NCc1cccc(-c2ccc(C(F)(F)F)cn2)c1)S(=O)(=O)c1ccc(F)cc1 [Example 42, 2-[Ethyl-(4-fluoro-benzenesulfonyl)-amino]-N-[3-(5-trifluoromethyl-pyridin-2-yl)-benzyl]-acetamide] | 84
COc1cc(CNC(=O)CN(C)S(=O)(=O)c2ccc(F)cc2)cc(-c2ccc(C(F)(F)F)cc2)c1 [Example 43, 2-[(4-Fluoro-benzenesulfonyl)-methyl-amino]-N-(5-methoxy-4′-trifluoromethyl-biphenyl-3-ylmethyl)-acetamide] | 380
CCN(CC(=O)NCc1cc(OC)cc(-c2ccc(C(F)(F)F)cc2)c1)S(=O)(=O)c1ccc(F)cc1 [Example 44, 2-[Ethyl-(4-fluoro-benzenesulfonyl)-amino]-N-(5-methoxy-4′-trifluoromethyl-biphenyl-3-ylmethyl)-acetamide] | 87
COc1cc(CNC(=O)CN(C(C)C)S(=O)(=O)c2ccc(F)cc2)cc(-c2ccc(C(F)(F)F)cc2)c1 [Example 45, 2-[(4-Fluoro-benzenesulfonyl)-isopropyl-amino]-N-(5-methoxy-4′-trifluoromethyl-biphenyl-3-ylmethyl)-acetamide] | 48
CCN(CC(=O)NCc1ccc(OC)c(-c2ccc(C(F)(F)F)cc2)c1)S(=O)(=O)c1ccc(F)cc1 [Example 46, 2-[Ethyl-(4-fluoro-benzenesulfonyl)-amino]-N-(6-methoxy-4′-trifluoromethyl-biphenyl-3-ylmethyl)-acetamide] | 130
COc1ccc(CNC(=O)CN(C(C)C)S(=O)(=O)c2ccc(F)cc2)cc1-c1ccc(C(F)(F)F)cc1 [Example 47, 2-[(4-Fluoro-benzenesulfonyl)-isopropyl-amino]-N-(6-methoxy-4′-trifluoromethyl-biphenyl-3-ylmethyl)-acetamide] | 41
CC(C)N(CC(=O)NCc1cccc(-c2ccc(C(F)(F)F)cc2)c1)S(=O)(=O)c1cccc(F)c1 [Example 48, 2-[(3-Fluoro-benzenesulfonyl)-isopropyl-amino]-N-(4′-trifluoromethyl-biphenyl-3-ylmethyl)-acetamide] | 34
CC(C)N(CC(=O)NCc1cc(-c2ccc(C(F)(F)F)cc2)ncn1)S(=O)(=O)c1cccc(F)c1 [Example 49, 2-[(3-Fluoro-benzenesulfonyl)-isopropyl-amino]-N-[6-(4-trifluoromethyl-phenyl)-pyrimidin-4-ylmethyl]-acetamide] | 70
CC(C)N(CC(=O)NCc1cccc(-c2ccc(C(F)(F)F)cn2)c1)S(=O)(=O)c1cccc(F)c1 [Example 50, 2-[(3-Fluoro-benzenesulfonyl)-isopropyl-amino]-N-[3-(5-trifluoromethyl-pyridin-2-yl)-benzyl]-acetamide] | 79
